These results are taken from ChEMBL document CHEMBL6127013, “A chemical platform for the efficient screening of arylazopyrazole-based photoswitchable CENP-E inhibitors using mild cyclization reactions” (Bioorg Med Chem Lett, 2024).

In experiment [1] the target is T1, Centromere-associated protein E (Homo sapiens, UniProt Q02224). The experiment in a line: Inhibition of CENP-E (unknown origin) ATPase activity in absence of light illumination.
The next experiment relates to HeLa. The experiment in a line: Antiproliferative activity against human HeLa cells assessed as inhibition of cell proliferation. The experiment is classed as functional, cell-based.
The target in experiment [2] is T1, Centromere-associated protein E. The experiment in a line: Inhibition of CENP-E (unknown origin) ATPase activity in presence 365 nm of light illumination.
Experiment [3] has the same target. The experiment in a line: Inhibition of CENP-E in human HeLa cells assessed as misaligned chromosome at 1 uM incubated for 2 hrs by DAPI staining based assay. It is filed as cell-based.

The source made the active and inactive calls. No cut-off for these calls is given here. Some results are limits rather than exact numbers.

T1 sequence (Q02224 whole entry): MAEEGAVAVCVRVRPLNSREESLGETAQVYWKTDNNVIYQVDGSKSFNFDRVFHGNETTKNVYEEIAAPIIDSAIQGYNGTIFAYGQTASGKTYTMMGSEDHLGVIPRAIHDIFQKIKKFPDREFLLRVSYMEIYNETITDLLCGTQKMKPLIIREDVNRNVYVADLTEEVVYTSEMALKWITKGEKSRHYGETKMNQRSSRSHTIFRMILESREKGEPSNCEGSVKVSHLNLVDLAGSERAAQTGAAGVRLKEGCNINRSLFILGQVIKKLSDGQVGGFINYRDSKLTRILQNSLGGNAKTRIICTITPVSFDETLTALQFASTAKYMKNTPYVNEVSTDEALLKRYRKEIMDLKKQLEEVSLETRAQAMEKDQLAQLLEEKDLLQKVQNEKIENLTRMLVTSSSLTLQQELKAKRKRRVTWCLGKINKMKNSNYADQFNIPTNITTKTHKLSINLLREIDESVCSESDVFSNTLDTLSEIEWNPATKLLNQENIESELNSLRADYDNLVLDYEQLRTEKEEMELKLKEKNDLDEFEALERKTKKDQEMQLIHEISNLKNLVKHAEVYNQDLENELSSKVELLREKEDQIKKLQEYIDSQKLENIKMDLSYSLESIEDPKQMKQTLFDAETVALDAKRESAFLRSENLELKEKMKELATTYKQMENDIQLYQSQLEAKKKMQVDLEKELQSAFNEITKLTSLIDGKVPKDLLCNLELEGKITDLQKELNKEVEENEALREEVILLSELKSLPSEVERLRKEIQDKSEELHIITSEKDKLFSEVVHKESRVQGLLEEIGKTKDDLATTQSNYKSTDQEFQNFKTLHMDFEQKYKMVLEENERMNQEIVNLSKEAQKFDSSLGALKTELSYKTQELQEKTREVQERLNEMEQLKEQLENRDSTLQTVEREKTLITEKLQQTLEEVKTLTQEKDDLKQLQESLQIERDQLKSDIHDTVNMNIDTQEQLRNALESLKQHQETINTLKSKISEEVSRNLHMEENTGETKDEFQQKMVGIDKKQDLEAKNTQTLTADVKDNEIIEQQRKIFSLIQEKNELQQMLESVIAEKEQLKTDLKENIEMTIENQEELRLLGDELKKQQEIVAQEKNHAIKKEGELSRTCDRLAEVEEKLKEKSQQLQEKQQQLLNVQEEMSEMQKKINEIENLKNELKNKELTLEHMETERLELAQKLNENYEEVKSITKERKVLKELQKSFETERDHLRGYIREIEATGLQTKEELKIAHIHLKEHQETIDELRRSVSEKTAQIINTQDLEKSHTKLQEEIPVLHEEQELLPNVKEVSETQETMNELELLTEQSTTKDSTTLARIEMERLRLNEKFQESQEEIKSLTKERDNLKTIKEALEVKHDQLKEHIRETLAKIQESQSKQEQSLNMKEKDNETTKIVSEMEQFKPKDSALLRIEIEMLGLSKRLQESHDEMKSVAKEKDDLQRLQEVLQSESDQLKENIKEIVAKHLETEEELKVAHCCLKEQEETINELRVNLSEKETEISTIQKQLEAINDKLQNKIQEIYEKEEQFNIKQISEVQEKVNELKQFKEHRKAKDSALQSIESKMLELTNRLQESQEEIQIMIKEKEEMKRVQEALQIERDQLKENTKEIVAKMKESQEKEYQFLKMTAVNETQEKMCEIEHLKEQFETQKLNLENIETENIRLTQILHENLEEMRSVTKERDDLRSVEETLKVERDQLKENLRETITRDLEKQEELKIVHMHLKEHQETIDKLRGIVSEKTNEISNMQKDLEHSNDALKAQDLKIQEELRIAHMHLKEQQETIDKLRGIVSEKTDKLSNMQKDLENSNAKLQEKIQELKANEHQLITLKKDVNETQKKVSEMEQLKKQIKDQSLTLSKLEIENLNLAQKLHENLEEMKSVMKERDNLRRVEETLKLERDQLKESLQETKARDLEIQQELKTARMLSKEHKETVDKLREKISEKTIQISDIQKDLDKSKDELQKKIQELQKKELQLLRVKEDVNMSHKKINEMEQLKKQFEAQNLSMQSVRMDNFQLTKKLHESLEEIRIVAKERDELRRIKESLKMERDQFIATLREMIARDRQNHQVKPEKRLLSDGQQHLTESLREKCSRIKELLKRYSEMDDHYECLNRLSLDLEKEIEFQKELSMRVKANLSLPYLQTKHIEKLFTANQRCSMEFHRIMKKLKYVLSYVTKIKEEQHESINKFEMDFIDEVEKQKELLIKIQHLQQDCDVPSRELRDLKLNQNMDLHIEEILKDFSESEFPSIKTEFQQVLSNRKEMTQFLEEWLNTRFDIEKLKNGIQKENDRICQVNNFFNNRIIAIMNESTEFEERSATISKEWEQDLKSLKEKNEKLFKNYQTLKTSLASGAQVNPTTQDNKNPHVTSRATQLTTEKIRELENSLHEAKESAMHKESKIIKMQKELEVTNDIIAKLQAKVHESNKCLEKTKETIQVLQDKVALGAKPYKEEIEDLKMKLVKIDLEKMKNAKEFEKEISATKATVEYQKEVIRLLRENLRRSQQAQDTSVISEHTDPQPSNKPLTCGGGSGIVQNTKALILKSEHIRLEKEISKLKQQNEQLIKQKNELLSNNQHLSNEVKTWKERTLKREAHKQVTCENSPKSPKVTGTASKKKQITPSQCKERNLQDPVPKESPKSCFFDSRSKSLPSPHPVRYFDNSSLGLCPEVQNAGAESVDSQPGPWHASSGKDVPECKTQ

With `CNC(=O)[C@H](Cc1ccc(/N=N/c2c(C)nn(C)c2C)cc1)NC(=O)c1ccc(OC(C)C)c(Cl)c1`, the IC50 (in general, the midpoint of a concentration-inhibition curve) in experiment [1] is 15.8 nM; in the experiment with HeLa, 191 nM; in experiment [2], 372 nM.

With `CNC(=O)[C@H](Cc1ccc(/N=N/c2c(C)nn(C(N)=S)c2C)cc1)NC(=O)c1ccc(OC(C)C)c(Cl)c1`, the half-inhibitory concentration (IC50) in experiment [1] is 145 nM; with HeLa, 10000 nM; in experiment [2], 51.3 nM.

For `CNC(=O)[C@H](Cc1ccc(/N=N/c2c(C)nn(C(N)=O)c2C)cc1)NC(=O)c1ccc(OC(C)C)c(Cl)c1`, the IC50 in experiment [1] is 15.1 nM; in the experiment on HeLa it was 457 nM; in experiment [2] it was 129 nM.

Take `CNC(=O)[C@H](Cc1ccc(/N=N/c2c(C)nn(C3=NCCN3)c2C)cc1)NC(=O)c1ccc(OC(C)C)c(Cl)c1`: the IC50 in experiment [1] is 240 nM; in the experiment on HeLa, > 10000 nM; in experiment [2], 417 nM.

As to `CNC(=O)[C@H](Cc1ccc(/N=N/c2c(C)nn(C(C)C)c2C)cc1)NC(=O)c1ccc(OC(C)C)c(Cl)c1`, the IC50 in experiment [1] was 123 nM; with HeLa, > 10000 nM; in experiment [2], 158 nM.

In the case of `CNC(=O)[C@H](Cc1ccc(NN=C(C(C)=O)C(C)=O)cc1)NC(=O)c1ccc(OC(C)C)c(Cl)c1`, the inhibition result in experiment [3] is “inactive”.

Consider `CNC(=O)[C@H](Cc1ccc(/N=N/c2c(C)nn(-c3cccc4ccccc34)c2C)cc1)NC(=O)c1ccc(OC(C)C)c(Cl)c1`, for which the IC50 is < 501 nM in experiment [1], 10000 nM in the experiment on HeLa and > 501 nM in experiment [2].

Regarding `CNC(=O)[C@H](Cc1ccc(/N=N/c2c(C)nn(-c3ccccn3)c2C)cc1)NC(=O)c1ccc(OC(C)C)c(Cl)c1`, the IC50 in experiment [1] is 93.3 nM; with HeLa, 10000 nM; in experiment [2], 162 nM.

In the case of `CCCC(=O)n1nc(C)c(/N=N/c2ccc(C[C@H](NC(=O)c3ccc(OC(C)C)c(Cl)c3)C(=O)NC)cc2)c1C`, the half-maximal inhibitory concentration (IC50) in experiment [1] is 33.9 nM; in the experiment with HeLa, 447 nM; in experiment [2] it was 83.2 nM.

With `CNC(=O)[C@H](Cc1ccc(/N=N/c2c(C)nn(C(C)=O)c2C)cc1)NC(=O)c1ccc(OC(C)C)c(Cl)c1`, the IC50 in experiment [1] was 209 nM; in the experiment with HeLa, > 10000 nM; in experiment [2], 245 nM.

For `CNC(=O)[C@H](Cc1ccc(/N=N/c2c(C)nn(C(=O)OC)c2C)cc1)NC(=O)c1ccc(OC(C)C)c(Cl)c1`, the values for the IC50 (in experiment [1]; in the experiment with HeLa; in experiment [2]) were 380 nM, > 10000 nM and > 501 nM, respectively.

`CNC(=O)[C@H](Cc1ccc(/N=N/c2c(C)nn(C(=N)N)c2C)cc1)NC(=O)c1ccc(OC(C)C)c(Cl)c1`: the IC50 in experiment [1] is 245 nM; with HeLa it was 10000 nM; in experiment [2], 151 nM.

`CNC(=O)[C@H](Cc1ccc(/N=N/c2c(C)nn(C=O)c2C)cc1)NC(=O)c1ccc(OC(C)C)c(Cl)c1`: the values for the IC50 (in experiment [1]; in the experiment on HeLa; in experiment [2]) were 123 nM, 550 nM and 120 nM, respectively.

Consider `CNC(=O)[C@H](Cc1ccc(/N=N/c2c(C)nn(Cc3ccccc3)c2C)cc1)NC(=O)c1ccc(OC(C)C)c(Cl)c1`, for which the IC50 in experiment [1] is 204 nM; with HeLa, > 10000 nM; in experiment [2], > 501 nM.

For the molecule `CNC(=O)[C@H](Cc1ccc(/N=N/c2c(C)noc2C)cc1)NC(=O)c1ccc(OC(C)C)c(Cl)c1`, the half-maximal inhibitory concentration (IC50) in experiment [1] was 20 nM; with HeLa, 380 nM; in experiment [2], 166 nM.

Consider `CNC(=O)[C@H](Cc1ccc(/N=N/c2c(C)nn(C(=O)c3ccccc3)c2C)cc1)NC(=O)c1ccc(OC(C)C)c(Cl)c1`, for which the figures for the IC50 (in experiment [1]; in the experiment with HeLa; in experiment [2]) were 204 nM, > 10000 nM and 129 nM, respectively.

`CNC(=O)[C@H](Cc1ccc(/N=N/c2c(C)n[nH]c2C)cc1)NC(=O)c1ccc(OC(C)C)c(Cl)c1`: the IC50 in experiment [1] was > 501 nM; in the experiment with HeLa, > 10000 nM; in experiment [2], > 501 nM.

As for `CNC(=O)[C@H](Cc1ccc(/N=N/c2c(C)nn(C3CCCCC3)c2C)cc1)NC(=O)c1ccc(OC(C)C)c(Cl)c1`, the IC50 in experiment [1] is 105 nM; in experiment [2], 97.7 nM.

Consider `CNC(=O)[C@H](Cc1ccc(/N=N/c2c(C)nn(CCO)c2C)cc1)NC(=O)c1ccc(OC(C)C)c(Cl)c1`, for which the IC50 in experiment [1] is 12 nM; in the experiment on HeLa it was 200 nM; in experiment [2] it was 195 nM.

For `CNC(=O)[C@H](Cc1ccc(/N=N/c2c(C)nn(-c3ccc(F)cc3F)c2C)cc1)NC(=O)c1ccc(OC(C)C)c(Cl)c1`, the IC50 in experiment [1] is 339 nM; with HeLa, 10000 nM; in experiment [2], > 501 nM.
